Source: patent US12383523B2, “Magnetic resonance imaging drug containing deuterated sarcosine, and diagnostic method using said drug” (LIMITED LIABILITY COMPANY “SOLVEX” (“SOLVEX” LLC), priority 2018, dated 2025)

Key:
[1] = high doses, prior art; cited from earlier work
[2] = up to the replacement of 10-30% of water in the body; cited from earlier work
[3] = From the text: An important property of the deuterated component (sarcosine) of the diagnostic drug of the invention is sufficient resistance to metabolic exchange of deuterium for protium in vivo. This exchange lowers the concentration of the deuterium label, while simultaneously increasing the background signal of heavy water (DOH), which is evenly distributed throughout the body due to rapid diffusion. This process leads to a decrease in the contrast of the image, and also prevents quantitive evaluation of deuterated component concentration by comparison with the intensity of natural DOH signal.
[4] = Solubility in water for injection; format: physicochemical; details: limits the dose to 10 mg in 1.0 ml
4T1 breast carcinoma = assay: Deuterium tomography (2H MRI) of mice with 4T1 breast carcinoma after injection of the deuterated compound; details: 10 mg intraperitoneally in 1.0 ml water, 20 g mouse
Procedure: The deuterium tomogram was recorded using FLASH (Fast low angle shot) pulse sequence. The excitation frequency was determined from the ^2H NMR spectrum and was on the instrument used: sfo1≈46.17452 MHz, rectangular excitation pulse 2560 Hz wide and 11.2 dB power, deflection angle FA=30°, repetition time TR=11.8 ms, echo time TE=4.07 ms, scan region10 cm×10 cm, scan matrix 50×50, slice thickness 3 cm, bandwidth 12500 Hz, total scan time 9 minutes 34 seconds (1024 accumulations).
In this example, experiments were performed on Balb/c mice grafted with 4T1 breast carcinoma (injection of 5×10^5 cells/60 μI under the left forepaw 12 days before the experiment). […] In 10 minutes after the injection, the animal was immobilized with isoflurane and placed on a heated bed in a tomograph.
An animal weighing 20 g was injected intraperitoneally with a solution:

[5] = freely diffusing deuterated compound
From the text: In this case, the pharmacokinetics in a non-obvious way depends on a dose used (in particular, an excess of the renal reabsorption capacity for a particular compound can lead to its accelerated excretion). At that, the dose is limited by the toxicity and solubility of this compound.

In the case of `CNCC(=O)O` [sarcosine], the LD50 [1] is listed as over 5000 mg/kg.

For `[2H]O` [DOH], the toxicity [2] is listed as “non-toxic in very high doses”.

In the case of `[2H]C([2H])(N)C(=O)O` [glycine-2,2-d2], the “loss of deuterium in vivo (exchange of deuterium for protium)” value [3] was “lose deuterium in vivovery quickly”.

In the case of `[2H]C([2H])([2H])[C@H](N)C(=O)O` [L-alanine-3,3,3-d3], the “loss of deuterium in vivo (exchange of deuterium for protium)” value [3] was “lose deuterium in vivovery quickly”.

For `[2H]c1c([2H])c([2H])c(C([2H])([2H])[C@H](N)C(=O)O)c([2H])c1[2H]` [L-phenylalanine-β, β, 2,3,4,5,6-d7], the solubility [4] was “low solubility”, the “accumulation in tumor tissue” value (4T1 breast carcinoma) was “do not accumulate in tumor tissue” and the “accumulation selectivity in various organs” value (4T1 breast carcinoma) was “do not show accumulation selectivity”.

With `[2H]O[2H]` [D2O] the “selective accumulation in various organs and tissues of a subject” value [5] was “do not show selective accumulation”.
